Data: US8445440B2, “Dimeric IAP inhibitors” (Novartis AG, priority 2010, dated 2013)

Columns and labels:
XIAP-BIR3 = XIAP-BIR3 (Homo sapiens, UniProt P98170); test: Biacore SPR solution competition binding assay vs smac7 mer peptide, XIAP-BIR3; details: citrate salt form tested; 100 nM XIAP-BIR3; 25° C.; read-out: XIAP-BIR3 Binding Biacore (Competitive) EC50
Text: (§1) The compounds described herein above were profiled using a cellular assay (using SKOV3 or Panc3.27 tumor cells) and a binding assay to determine the competition between the compounds of the present invention and smac7 mer peptide for XIAP-BIR3 and cIAP1-BIR3 binding groove occupancy.
(§2) The present method includes utility of a Surface plasmon resonance (SPR)-based biosensor (Biacore™ GE Healthcare, Uppsala, Sweden) to examine competition between the compounds of the present invention and smac7 mer peptide for XIAP-BIR3 and cIAP1-BIR3 binding groove occupancy.
(§3) Biacore™ utilizes the phenomenon of surface plasmon resonance (SPR) to detect and measure binding interactions. In a typical Biacore experiment, one of the interacting molecules is immobilized on a flexible dextran matrix while the interacting partner is flowed over the derivatized surface. A binding interaction results in an increase in mass on the sensor surface and a corresponding direct change in the refractive index of the medium in the vicinity of the sensor surface. Changes in refractive index or signal are recorded in resonance units (R.U.) Signal changes due to association and dissociation of complexes are monitored in a non-invasive manner, continuously and in real-time, the results of which are reported in the form of a sensorgram.
(§4) Biacore™ T100 (GE Healthcare, Uppsala, Sweden) was used to conduct all experiments reported herein. Sensor surface preparation and interaction analyses were performed at 25° C. Buffer and Biacore reagents were purchased from GE Healthcare. Running buffer containing 10 mM Hepes, pH7.4, 150 mM sodium chloride, 1.25 mM Dithiothreitol, 2% Dimethyl sulfoxide and 0.05% polysorbate 20 was utilized throughout all experiments.
(§5) Biotinylated smac7 mer peptide was diluted to 10 nM in running buffer and captured onto a sensor surface pre-derivatized with streptavidin (sensor chip SA) towards peptide surface densities in the range 40-100 R.U. Peptide captured surfaces were blocked with 500 μM PEO2-Biotin (Thermo Scientific).
(§6) Interaction analyses were performed by first equilibrating each compound within a six point seven fold compound dilution series in the range 1 μM to 0.06 nM with either 100 nM XIAP-BIR3 or 6 nM cIAP1-BIR3 for at least one hour during instrument start-up procedures. Protein compound mixtures were then injected over reference and smac7 mer peptide surfaces in series for 60 seconds at a flow-rate of 64 μL/minutes. Surface regeneration was performed at the end of each analysis cycle by a 30 second injection of 10 mM Glycine, pH 2.5, 1M Sodium Chloride, 0.05% polysorbate 20. Additionally, control compound samples and control XIAP-BIR3 or cIAP1-BIR3 samples were prepared and run at regular intervals to monitor surface and assay performance.
(§7) Data analyses were carried out using Biacore™ T100 evaluation software v2.0 to validate assay quality. Binding level report points were plotted versus logarithmic compound concentration values and analyzed in Graphpad prism 5 via non-linear regression using a one-site competition model. EC50 values were generated and used as a measure of inhibitor potency.

cIAP1-BIR3 = cIAP1-BIR3 (Homo sapiens, UniProt Q13490); test: Biacore SPR solution competition binding assay vs smac7 mer peptide, cIAP1-BIR3; details: citrate salt form tested; 6 nM cIAP1-BIR3; 25° C.; read-out: CIAP-BIR3 Binding Biacore (Competitive) EC50
Text: as §1, §2, §3, §4, §5, §6, §7

SKOV3 tumor cells = test: Cellular assay, SKOV3 tumor cell proliferation (Cell Titer Glo); assay type: cell-based; details: Homo sapiens, SK-OV-3, citrate salt form tested, 72 hour growth
Experimental: as §1
(§8) On day one adherent SKOV3 and Panc3.27 cells are plated into two 96-well, clear, flat bottom plates. All wells in row A contain 90 uL of media. All wells in rows B-G contain a total volume of 90 uL per well and 2000 cells per well for SKOV3 and 4000 cells per well for Panc3.27 cell lines. Plates are then incubated overnight for 18 hours at 37° C., 5% CO2.
(§9) On day two cells are treated with the compounds of formula M-L-M′. Treatments are done in triplicate. The compounds are first serially diluted in DMSO and then added to media giving a final concentration of 0.2% DMSO when added to cells. Cells are treated with 10 uL of serially diluted compounds of formula M-L-M′ at a final concentration of 1000 nM, 200 nM, 40 nM, 8 nM, 1.6 nM, 0.32 nM, 0.06 nM, 0.013 nM, 0.0026 nM, and one untreated well. Plate two is used as a time zero plate.
(§10) To measure cell viability 50 uL of Cell Titer Glo (CTG) solution is added to row A, media only and B, cells and media. CTG is purchased from Promega Corporation catalog number G7573. The solution is prepared according to manufacturer's instructions. CTG measures the amount of ATP released from viable cells that is proportional to the number of cells in each well. After incubating for ten minutes with CTG plates are measured on a luminescent reader at 700 nm wavelength. Read time is approximately one second per well for a 96-well plate.
(§11) On day five 50 uL of CTG is added to plate one, rows A-G, incubated for 10 minutes at room temperature and read on a luminescent reader. Raw data is adjusted to account for the time zero plate as well as background noise. Triplicate values are averaged and percent control growth is calculated. Percent control growth is calculated using the following logical test: If well read data point (a) is greater than time zero data point (t=0), then 100*[(a)−(t=0)]/[(72 hour total growth)−(t=0)], OR 100*[(a)−(t=0)]/[(t=0)]. Data is represented by line graph with the concentration of compound on the x axis and percent control growth on the y axis.

Panc3.27 tumor cells = test: Cellular assay, Panc3.27 tumor cell proliferation (Cell Titer Glo); assay type: cell-based; details: citrate salt form tested, Panc3.27 cells, 72 hour growth, read-out: PANC proliferation IC50
Experimental: as §1, §8, §9, §10, §11

Sequence of XIAP-BIR3 (P98170 241-356 limits assumed): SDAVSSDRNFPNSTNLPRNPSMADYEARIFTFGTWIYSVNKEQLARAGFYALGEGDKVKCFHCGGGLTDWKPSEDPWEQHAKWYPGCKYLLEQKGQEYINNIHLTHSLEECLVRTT
Sequence of cIAP1-BIR3 (Q13490 260-352 limits assumed): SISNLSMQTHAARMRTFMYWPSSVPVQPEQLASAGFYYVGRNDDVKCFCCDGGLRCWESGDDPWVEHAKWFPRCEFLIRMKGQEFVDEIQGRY

Row | SMILES | EC50 (XIAP-BIR3) | EC50 (cIAP1-BIR3) | IC50 (SKOV3 tumor cells) | IC50 (Panc3.27 tumor cells)
1 | O=C(NCCCC[C@H](NC(=O)[C@@H]1CCN1)C(=O)N1CCC[C@H]1c1cncc(C(=O)c2ccc(F)cc2)c1)c1ccc(-c2ccc(C(=O)NCCCC[C@H](NC(=O)[C@@H]3CCN3)C(=O)N3CCC[C@H]3c3cncc(C(=O)c4ccc(F)cc4)c3)cc2)cc1 [Example 1K, Biphenyl-4,4′-dicarboxylic acid bis-[((S)-5-[((S)-azetidine-2-carbonyl)-amino]-6-{(S)-2-[5-(4-fluoro-benzoyl)-pyridin-3-yl]-pyrrolidin-1-yl}-6-oxo-hexyl)-amide]] | 636 to 704 nM | 18.4 to 19.4 nM | 9420 to 9460 nM | > 10000 nM
2 | CN[C@@H](C)C(=O)N[C@@H](CCCCNC(=O)c1ccc(C(=O)NCCCC[C@H](NC(=O)[C@H](C)NC)C(=O)N2CCC[C@H]2c2cncc(C(=O)c3ccc(F)cc3)c2)cc1)C(=O)N1CCC[C@H]1c1cncc(C(=O)c2ccc(F)cc2)c1 [Example 1C, N,N′-Bis-[(S)-6-{(S)-2-[5-(4-fluorobenzoyl)-pyridin-3-yl]-pyrrolidin-1-yl}-5-((S)-2-methylamino-propionylamino)-6-oxo-hexyl]-terephthalamide] | 413 to 425 nM | 4.75 to 4.89 nM | 84 to 127 nM | 63.3 to 147 nM
3 | CN[C@@H](C)C(=O)N[C@@H](CCCCNC(=O)CCCCCCCCC(=O)NCCCC[C@H](NC(=O)[C@H](C)NC)C(=O)N1CCC[C@H]1c1cncc(C(=O)c2ccc(F)cc2)c1)C(=O)N1CCC[C@H]1c1cncc(C(=O)c2ccc(F)cc2)c1 [Example 1G, Decanedioic acid bis-{[(S)-6-{(S)-2-[5-(4-fluoro-benozyl)-pyridin-3-yl]-pyrrolidin-1-yl}-5-((S)-2-methylamino-propionylamino)-6-oxo-hexyl]-amide}] | 97.2 to 108 nM | 0.71 nM | 9.64 to 16.4 nM | 5.22 to 27.9 nM
4 | CN[C@@H](C)C(=O)N[C@@H](CCCCNC(=O)CCCCCCCC(=O)NCCCC[C@H](NC(=O)[C@H](C)NC)C(=O)N1CCC[C@H]1c1cncc(C(=O)c2ccc(F)cc2)c1)C(=O)N1CCC[C@H]1c1cncc(C(=O)c2ccc(F)cc2)c1 [Example 1F, Nonanedioic acid bis-{[(S)-6-{(S)-2-[5-(4-fluoro-benzoyl)-pyridin-3-yl]-pyrrolidin-1-yl}-5-((S)-2-methylamino-propionylamino)-6-oxo-hexyl]-amide}] | 129 to 145 nM | 0.68 to 0.69 nM | 16.1 to 20.1 nM | 12.8 to 106 nM
5 | CN[C@@H](C)C(=O)N[C@@H](CCCCNC(=O)c1cccc(C(=O)NCCCC[C@H](NC(=O)[C@H](C)NC)C(=O)N2CCC[C@H]2c2cncc(C(=O)c3ccc(F)cc3)c2)c1)C(=O)N1CCC[C@H]1c1cncc(C(=O)c2ccc(F)cc2)c1 [Example 1E, N,N′-Bis-[(S)-6-{(S)-2-[5-(4-fluoro-benzoyl)-pyridin-3-yl]-pyrrolidin-1-y}-5-((S)-2-methylamino-propionylamino)-6-oxo-hexyl]-isophthalamide] | 139 to 158 nM | 0.47 to 0.52 nM | 26.7 to 79.4 nM | 26.8 to 185 nM
6 | CN[C@@H](C)C(=O)N[C@@H](CCCCNC(=O)CCCCCC(=O)NCCCC[C@H](NC(=O)[C@H](C)NC)C(=O)N1CCC[C@H]1c1cncc(C(=O)c2ccc(F)cc2)c1)C(=O)N1CCC[C@H]1c1cncc(C(=O)c2ccc(F)cc2)c1 [Example 1A, Heptanedioic acid bis-{[(S)-6-{(S)-2-[5-(4-fluoro-benzoyl)-pyridin-3-yl]-pyrrolidin-1-yl}-5-((S)-2-methylamino-propionylamino)-6-oxo-hexyl]-amide}] | 126 to 131 nM | 0.68 to 0.7 nM | 41 to 77.1 nM | 72.4 to 427 nM

More lines, now with the values ahead:

Row | EC50 (XIAP-BIR3) | EC50 (cIAP1-BIR3) | IC50 (SKOV3 tumor cells) | IC50 (Panc3.27 tumor cells) | SMILES
7 | 123 to 126 nM | 0.7 nM | ≥ 967 nM | 88.3 to 393 nM | CN[C@@H](C)C(=O)N[C@@H](Cc1ccc(NC(=O)CCCC(=O)Nc2ccc(C[C@H](NC(=O)[C@H](C)NC)C(=O)N3CCC[C@H]3c3cncc(C(=O)c4ccc(F)cc4)c3)cc2)cc1)C(=O)N1CCC[C@H]1c1cncc(C(=O)c2ccc(F)cc2)c1 [Example 2F, Pentanedioic acid bis-({4-[(S)-3-{(S)-2-[5-(4-fluoro-benzoyl)-pyridin-3-yl]-pyrrolidin-1-yl}-2-((S)-2-methylamino-propionylamino)-3-oxo-propyl]-phenyl}-amide)]
8 | 99.4 to 104 nM | 0.73 to 0.81 nM | 17.1 to 23.5 nM | 37.6 to 95.7 nM | CN[C@@H](C)C(=O)N[C@@H](Cc1ccc(NC(=O)CCCCCCCC(=O)Nc2ccc(C[C@H](NC(=O)[C@H](C)NC)C(=O)N3CCC[C@H]3c3cncc(C(=O)c4ccc(F)cc4)c3)cc2)cc1)C(=O)N1CCC[C@H]1c1cncc(C(=O)c2ccc(F)cc2)c1 [Example 2E, Nonanedioic acid bis-({4-[(S)-3-{(S)-2-[5-(4-fluoro-benzoyl)-pyridin-3-yl]-pyrrolidin-1-yl}-2-((S)-2-methylamino-propionylamino)-3-oxo-propyl]-phenyl}-amide)]
9 | 131 to 194 nM | 0.37 to 0.41 nM | 7.39 to 15.4 nM | 11.7 to 25.9 nM | CN[C@@H](C)C(=O)N[C@@H](Cc1ccc(NC(=O)CCCCCCCCC(=O)Nc2ccc(C[C@H](NC(=O)[C@H](C)NC)C(=O)N3CCC[C@H]3c3cncc(C(=O)c4ccc(F)cc4)c3)cc2)cc1)C(=O)N1CCC[C@H]1c1cncc(C(=O)c2ccc(F)cc2)c1 [Example 2B, Decanedioic acid bis-({4-[(S)-3-{(S)-2-[5-(4-fluoro-benzoyl)-pyridinyl-3-yl]-pyrrolidin-1-yl}-2-((S)-2-methylamino-propionylamino)-3-oxo-propyl]-phenyl}-amide)]
10 | 146 to 154 nM | 0.73 to 0.74 nM | 23.5 to 25.8 nM | – | CN[C@@H](C)C(=O)N[C@@H](Cc1ccc(NC(=O)CCCCCC(=O)Nc2ccc(C[C@H](NC(=O)[C@H](C)NC)C(=O)N3CCC[C@H]3c3cncc(C(=O)c4ccc(F)cc4)c3)cc2)cc1)C(=O)N1CCC[C@H]1c1cncc(C(=O)c2ccc(F)cc2)c1 [Example 2A, Heptanedioic acid bis-({4-[(S)-3-{(S)-2-[5-(4-fluoro-benzoyl)-pyridin-3-yl]-pyrrolidin-1-yl}-2-((S)-2-methylamino-propionylamino)-3-oxo-propyl]-phenyl}-amide)]
11 | 228 to 238 nM | 0.66 to 0.68 nM | 107 to 291 nM | 167 to 694 nM | CN[C@@H](C)C(=O)N[C@@H](Cc1ccc(NC(=O)c2cccc(C(=O)Nc3ccc(C[C@H](NC(=O)[C@H](C)NC)C(=O)N4CCC[C@H]4c4cncc(C(=O)c5ccc(F)cc5)c4)cc3)c2)cc1)C(=O)N1CCCC1c1cncc(C(=O)c2ccc(F)cc2)c1 (stereo partly drawn) [Example 2D, N,N′-Bis-{4-[(S)-3-{(S)-2-[5-(4-fluoro-benzoyl)-pyridin-3-yl]-pyrrolidin-1-yl}-2-((S)-2-methylamino-propionylamino)-3-oxo-propyl]-pheny}-isophthalamide]
